Test results as given in article PMC9728511, “Direct formation and site-selective elaboration of methionine sulfoximine in polypeptides” (Chemical Science, 2022).

Tested on: glutamine synthetase (GS)
Assay: glutamine synthetase inhibition assay (glutamine synthetase activity assay kit, Abcam)
Format: biochemical
Conditions: for Inhibition (%) of glutamine synthetase, Assay 1: Table S4, assay 1 of 3; for Inhibition (%) of glutamine synthetase, Assay 1 / Inhibition (%) of glutamine synthetase, Assay 2 / Inhibition (%) of glutamine synthetase, Assay 3: 1 mM inhibitor final concn, enzyme pre-incubated with inhibitor 37 °C 10 min, colorimetric ADP detection, A570 (average of 3 readings), background subtracted, vs enzyme control; for Inhibition (%) of glutamine synthetase, Assay 1 / Inhibition (%) of glutamine synthetase, Assay 2 / Inhibition (%) of glutamine synthetase, Assay 3 / Average inhibition (%) of glutamine synthetase: reaction 37 °C 60 min; for Inhibition (%) of glutamine synthetase, Assay 2: Table S5, assay 2 of 3; for Inhibition (%) of glutamine synthetase, Assay 3: Table S6, assay 3 of 3; for Average inhibition (%) of glutamine synthetase: Table S7, average of assay 1, 2 and 3 (mean of 3 independent experiments), 1 mM inhibitor, pre-incubation 37 °C 10 min, A570; for inhibitory activity on glutamine synthetase compared with MSO: screen at 1 mM inhibitor concentration (Fig. 4), comparison in words
Description: Assays were performed at 1 mM inhibitor concentration using a glutamine synthetase activity assay kit (Abcam).
Procedure f or the glutamine synthetase inhibition assay (Figure 4)
In this assay, glutamine synthetase catalyzesthe transformation from g lutamate and ATP t o g lutamine and ADP. ADP in the subsequent reaction, in presence of ADP converter, ADP d eveloper and ADP pr obe , forms a colorimetric product that is measured at absorbance 570 nm.
1. Stock solutions of glutamine synthetase, ATP, ADP converter, and ADP developer were prepared according to the protocol by Abcam: https://www.abcam.com/ps/products/284/ab284572/documents/Glutamine-Synthetase- Activity-Assay- […]
GS assay buffer, glutamate, and ADP probe were used as supplied.
2. Glutamine synthetase (2 µL ) was pre- incubated with methionine sulfoximine (MSO) (2 µL, 10 mM, 1 mM final concn) and methionine sulfoximine peptides 1b -8b (2 µL, 10 mM, 1 mM final concn) at 37 °C for 10 min, protected from light. For enzyme control, GS assay buffer (2 µL ) was used instead of MSO or peptides 1b -8b. For background control, GS assay buffer (4 µL) without enzyme was used.
3. Substrate mix was prepared by mixing GS assay buffer (96 µL ), glutamate (24 µL ), and ATP (24 µL ).
The resulting substrate mix (12 µL) was added to each sample.
4. ADP reactio n mix was prepared by mixing GS assay buffer (42 µL), ADP probe (6 µL), ADP converter (6 µL), and ADP developer (6 µL ). The resulting ADP reaction mix (4 µL ) was added to each sample. The total reaction volume for each sample is 20 µL.
5. After incubation of the reaction mixture at 37 °C for 60 mi n , the absorbance at 570 nm (A570) was measured on a Thermo Scientific NanoDrop 2000c spectrophotometer. For each sample, A570 was measure […]
6. The background control reading was subtracted from test sample readings and enzyme control readings.
7. Inhibition of glutamine synthetase was det er mi ned by comparing A570 (test sample) and A570 ( enzyme
Percentage inhibition = A570 (enzyme control)−A570 (test sample)A570 (enzyme control) × 100%
8. The assay was repeated for 3 times and the percentage inhibition values are me a n ± S D of 3 independent

Row | Inhibition (%) of glutamine synthetase, Assay 1 | Inhibition (%) of glutamine synthetase, Assay 2 | Inhibition (%) of glutamine synthetase, Assay 3 | Average inhibition (%) of glutamine synthetase | inhibitory activity on glutamine synthetase compared with MSO | Molecule
1 | 9.5% | 13.0% | 12.1% | 11.5% | – | Ac-FPQSGM-NH2 [5b]
2 | 16.8% | 17.2% | 19.0% | 17.7% | – | Ac-MGDFQ-NH2 [1b]
3 | 29.2% | 28.6% | 33.0% | 30.3% | higher than that observed for MSO | Ac-MGKFQ-NH2 [2b]
4 | 28.6% | 26.2% | 24.1% | 26.3% | higher than that observed for MSO | Ac-MGRFTINP-NH2 [6b]
5 | 1.7% | 3.1% | 3.7% | 2.8% | – | Ac-RPKPQQFFGLM-NH2 (substance P) [7b]
6 | 35.3% | 33.6% | 36.1% | 35.0% | higher than that observed for MSO | Ac-SYSMEHFRWGKPV-NH2 (α-MSH) [8b]
7 | 13.3% | 15.5% | 14.3% | 14.4% | – | Ac-VGMSWP-NH2 [4b]
8 | 0.9% | 1.0% | 0.8% | – | – | Ac-YGMLNP-NH2 [3b]

Row | Molecule | Inhibition (%) of glutamine synthetase, Assay 1 | Inhibition (%) of glutamine synthetase, Assay 2 | Inhibition (%) of glutamine synthetase, Assay 3 | Average inhibition (%) of glutamine synthetase | inhibitory activity on glutamine synthetase compared with MSO
9 | CS(=N)(=O)CC[C@H](N)C(=O)O (some centres unmarked) [MSO, methionine sulfoximine] | 18.1% | 18.8% | 19.2% | 18.7% | –
